Results taken from US20120258974A1, “USE OF A2B ADENOSINE RECEPTOR ANTAGONISTS FOR TREATING HEART FAILURE AND ARRHYTHMIA IN POST-MYOCARDIAL INFARCTION PATIENTS” (GILEAD SCIENCES, INC., priority 2011, published 2012).

Key:
[1] = test system: primary human cardiac fibroblasts (HCF); test: NECA-induced release of IL-6, collagen, ST-2, PAPPA and expression of fibrotic markers in human cardiac fibroblasts (Example 2); format: cell-based; settings: antagonist with NECA
Method: Real-time RT-PCR was performed as published using Stratagene PCR equipment (La Jolla, Calif.). Zhong H., et al., “A2B adenosine receptors increase cytokine release by bronchial smooth muscle cells,” American Journal of Respiratory Cell and Molecular Biology, 30(1): 118-125 (2004).
Expression of AdoR, α-smooth muscle actin and α-1 pro-collagen was determined using real-time RT-PCR. The concentration of IL-6, soluble ST-2 and PAPPA (Pregnancy-associated plasma protein A) in the cell supernatants were measured using ELISA, and the concentration of soluble collagen were determined using Sircol™ collagen assay.

[2] = test system: acute myocardial infarction in the mouse (male ICR mice, coronary artery ligation); test: Cardiac remodeling after coronary artery ligation in ICR mice (Example 3); format: in vivo
Method: Male ICR mice underwent coronary artery ligation or sham surgery (N=8-10 per group). A selective A2B antagonist, Compound A 4 mg/kg in a formulated dosing suspension, every 12 hours i.p., was given starting immediately after the surgery and continued for 14 days. Transthoracic echocardiography was performed prior to surgery and then 7, 14 and 28 days later. A subgroup of mice was sacrificed 72 hours after surgery and the activity of caspase-1, a key proinflammatory mediator, was measured in the cardiac tissue.

ob/ob model mice = test: Inflammatory biomarker expression in ob/ob mice after 28-day dosing (Example 5); format: in vivo, mouse
Method: The A2B antagonist, Compound A (3 mg/kg/day or 10 mg/kg/day), was given to 6 weeks old ob/ob model mice for 28 days. At the end of the 28-day dosing, expression of a number of inflammatory biomarkers, MCP-1, IL-1b, IL-2 and IL-6, were measured in these mice as compared to control (vehicle).

[3] = test system: male mice with permanent coronary artery ligation; test: Mouse model of myocardial infarction: ECHO, plasma biomarkers, mortality (Example 5); format: in vivo
Method: The effect of Compound A in a mouse model of myocardial infarction was also determined. Male mice underwent permanent coronary artery ligation or sham surgery. Compound A (4 mg/kg) was given i.p. BID starting immediately or 1 hr after the surgery and continued for 14 days. Trans-thoracic ECHO to measure LV end-diastolic/systolic diameter (LVEDD or LVESD), RV end-diastolic area (RVEDA) and myocardial performance index (MPI) was performed prior to surgery and after 7, 14 and 28 days. Analysis of biomarkers of tissue inflammation and injury was conducted on 28 days post-MI.

[4] = test system: rats with MI (25 minutes coronary occlusion followed by reperfusion); test: Conduction velocities in LV myocardium, optical mapping, rat post-MI model (Example 6); format: in vivo; settings: 5 week post-MI
Method: The effects of Compound A in a rat model of post-MI remodeling and VT were determined. MI was caused by 25 minutes occlusion at the left anterior descending coronary ligation followed by reperfusion. One week later, rats were administered either vehicle or Compound A (100 mg/kg) once daily by oral gavage. Serial echocardiograms (ECHOs) to measure LV ejection fraction (LVEF), stroke volume and LV end systolic volume (LVESV) were obtained at baseline, 1 week and 5 week post-MI. Electrophysiological studies, optical mapping, histology and biomarker analysis were conducted at 5 week post-MI.
Abnormal electrical impulse conduction in the infarct border zone (IBZ) is important in the pathogenesis of post-MI arrhythmias. As shown in the conduction vector maps (FIG. 13A-B), the vehicle control group has much slower conduction velocity than the Compound A treated animals. To quantify the impact of Compound A on conduction properties, conduction velocities (CVs) were measured for infarct, border, and normal zones of LV myocardium. CVs in normal zones were fastest among all zones and were similar between placebo and Compound A groups (FIG. 14A). […] Finally, CVs in IBZs of both groups were in between those of non-infarct and infarct zones.

[5] = test system: human cardiac myocytes (HCM); test: NECA-induced IL-6 release from human cardiac myocytes (Example 7); format: cell-based; settings: NECA in combination with antagonist
Method: This example uses human cardiac myocytes to test two other A2B adenosine receptor antagonists on their effect on NECA-induced IL-6 release.
Human cardiac myocytes (HCM) were treated with NECA alone, or in combination with Compound A, Compound B (N-[5-(1-cyclopropyl-2,6-dioxo-3-propyl-2,3,6,7-tetrahydro-1H-purin-8-yl)-pyridin-2-yl]-N-ethyl-nicotinamide, also known as ATL-801) or Compound C (2-(4-benzyloxy-phenyl)-N-[5-(2,6-dioxo-1,3-dipropyl-2,3,6,7-tetrahydro-1H-purin-8-yl)-1-methyl-1H-pyrazol-3-yl]-acetamide).

[6] = echocardiography, 4 mg/kg i.p. every 12 hours for 14 days, vs vehicle
[7] = 3 mg/kg/day or 10 mg/kg/day for 28 days, vs vehicle
[8] = mice with MI, 4 mg/kg i.p. BID starting immediately or 1 hr after the surgery
[9] = mice with MI, day 28 post-MI, treatment immediately after surgery

CCCn1c(=O)c2[nH]c(-c3cnn(Cc4cccc(C(F)(F)F)c4)c3)nc2n(CC)c1=O [Compound A, 3-ethyl-1-propyl-8-(1-(3-(trifluoromethyl)benzyl)-1H-pyrazol-4-yl)-1H-purine-2,6(3H,7H)-dione]
effect of NECA on expression of α-1 pro-collagen [1]: completely abolished | effect of NECA on expression of α-smooth muscle actin [1]: completely abolished | effect of NECA on release of IL-6 [1]: completely abolished | effect of NECA on release of PAPPA [1]: completely abolished | effect of NECA on release of ST-2 [1]: completely abolished | effect of NECA on release of collagen [1]: completely abolished | mice that died during the 4 weeks post-surgery ([2]; 4 mg/kg i.p. every 12 hours for 14 days, vehicle 42%): 25% | caspase-1 activity in the cardiac tissue ([2]; 72 hours after surgery, 4 mg/kg i.p. every 12 hours, vs vehicle): significantly reduced | LV ejection fraction [2, 6]: increased | end-diastolic diameter [2, 6]: significantly reduced | myocardial performance index [2, 6]: significantly reduced | expression of IL-1b (ob/ob model mice; [7]): went down | expression of IL-2 (ob/ob model mice; [7]): went down | expression of IL-6 (ob/ob model mice; [7]): went down | expression of MCP-1 (ob/ob model mice; [7]): went down | reduction of IL-1b expression (ob/ob model mice; 10 mg/kg/day group, 28 days): statistically significant | reduction of MCP-1 expression (ob/ob model mice; 10 mg/kg/day group, 28 days): statistically significant | mortality rate (printed: morality rate) of mice with MI during the 4 weeks ([3]; 4 mg/kg i.p. BID for 14 days, vehicle 42%): 25% | increase of plasma level of sE-selectin ([3]; mice with MI): significantly inhibited | increase of plasma level of sICAM ([3]; mice with MI): significantly inhibited | increase of plasma level of sVCAM ([3]; mice with MI): significantly inhibited | LV/RV dimensions (LVEDD, LVESD, RVEDA) [3, 8]: significantly reduced | MPI [3, 8]: reduced | plasma concentration of IL-6 [3, 9]: significantly reduced | plasma concentration of ST2 [3, 9]: significantly reduced | plasma concentration of TNF-α [3, 9]: significantly reduced | myocardial remodeling/function in sham mice ([3]; sham mice): no effect | plasma biomarkers in sham-operated mice ([3]; sham-operated mice): no effect | conduction velocities in normal zones ([4]; vs placebo): similar | conduction velocities in IBZs ([4]; vs placebo control): significantly faster | conduction velocities in infarct zones ([4]; vs placebo control): significantly improved | effect of NECA on HCM (IL-6 release) [5]: completely abolished
